Test results as given in patent US20260248972A1, “DUAL RECEPTOR TARGETING RADIOLIGANDS AND USES THEREOF RELATED APPLICATIONS” (priority 2022, published 2026).
Like-named read-outs stand apart in the source and are kept apart here.

Columns and labels:
SSTR2 = target: T1, SSTR2 (Rattus norvegicus, UniProt P30680); test: Competitive cell-binding assay on AR42J cells with 125I-C1 as competitive ligand
T1 construct: host or cells: AR42J cells
Protocol: (§1) AR42J cells (ATCC) were maintained in RPMI-1640 medium (Gibco) supplemented with 15% fetal bovine serum (Gibco) and 1% penicillin-streptomycin (BI) at 37° C. in a humidified incubator with 5% CO2. The culture medium was replaced with fresh medium every 2-3 days. Experiments were performed with cells at 70-80% confluence.
(§2) Binding Affinity Tested by Using ^125I-Labeled Competitive Ligands.
(§3) The binding affinities of test compounds were determined by a competitive cell-binding assay using ^125I-C1 and ^125I-C3 as the competitive ligand. The suspended AR42J cells at a density of 1~3×10^6 cells/mL in binding buffer (RPMI-1640 medium supplemented with 0.25% bovine serum albumin) were transferred to a MultiScreen-DV Filter Plate (Millipore) with 100 μL per well except the blank group where the binding buffer was used instead. The cells were then incubated with ^125I-C1 and ^125I-C3 (0.02 μCi/well) in the presence of increasing concentrations (0-10000 nM) of test compounds at 37° C. for 1 h (n=3). The final volume in each well was maintained at 200 μL and insufficient volume was adjusted by the binding buffer. After the 1 h incubation, unbound ^125I-competitive ligands were removed by filtration using a Multiscreen vacuum manifold (Millipore) followed by rinses with the binding buffer (3 times). The filters were collected, and their radioactivity were individually measured by γ counter (2480 WIZARD2, PerkinElmer). The best-fit IC50value (inhibitory concentration when 50% of the bound ^125I-C1 and ^125l I-C3 on cells were displaced) of test compounds were calculated by fitting the data with nonlinear regression using GraphPad Prism 8.0.1.

CCK2R = target: T2, CCK2R (Rattus norvegicus, UniProt P30553); test: Competitive cell-binding assay on AR42J cells with 125I-C3 as competitive ligand
T2 construct: host or cells: AR42J cells
T2 sequence (P30553 1-452): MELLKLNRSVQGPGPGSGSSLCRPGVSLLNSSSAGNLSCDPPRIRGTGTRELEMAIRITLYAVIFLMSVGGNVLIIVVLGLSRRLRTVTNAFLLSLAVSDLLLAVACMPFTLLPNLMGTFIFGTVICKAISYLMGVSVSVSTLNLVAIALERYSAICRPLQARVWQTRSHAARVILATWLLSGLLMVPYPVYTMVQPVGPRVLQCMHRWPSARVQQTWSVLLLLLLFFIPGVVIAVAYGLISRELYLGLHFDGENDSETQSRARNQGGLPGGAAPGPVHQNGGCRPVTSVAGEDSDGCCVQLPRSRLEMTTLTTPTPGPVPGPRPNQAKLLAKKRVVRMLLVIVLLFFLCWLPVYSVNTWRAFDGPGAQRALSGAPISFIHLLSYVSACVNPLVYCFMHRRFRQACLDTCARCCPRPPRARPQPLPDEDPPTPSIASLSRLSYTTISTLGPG
Protocol: as §1, §2, §3

T1 sequence (P30680 whole entry): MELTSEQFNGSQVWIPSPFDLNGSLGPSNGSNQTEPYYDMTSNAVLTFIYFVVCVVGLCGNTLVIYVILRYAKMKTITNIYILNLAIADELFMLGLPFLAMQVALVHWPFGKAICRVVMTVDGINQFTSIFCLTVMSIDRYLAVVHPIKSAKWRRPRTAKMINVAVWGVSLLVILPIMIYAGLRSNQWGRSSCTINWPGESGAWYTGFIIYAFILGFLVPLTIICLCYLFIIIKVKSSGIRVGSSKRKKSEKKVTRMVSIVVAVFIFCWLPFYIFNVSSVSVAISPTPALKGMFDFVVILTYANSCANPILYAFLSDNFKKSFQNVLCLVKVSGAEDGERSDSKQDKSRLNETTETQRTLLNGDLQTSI

SMILES | Relative Binding Affinity SSTR2 (SSTR2; based on mean IC50, C-1 = 1.00) | Relative Binding Affinity CCK2R (CCK2R; based on mean IC50, C-2 = 1.00) | Relative Binding Affinity SSTR2 (SSTR2) | Relative Binding Affinity CCK2R (CCK2R) | IC50 (SSTR2; AR42J cells, 125I-C1 competitive ligand, 37° C. 1 h, read-out: SSTR2/IC50) [nM] | IC50 (CCK2R; AR42J cells, 125I-C3 competitive ligand, 37° C. 1 h, read-out: CCK2R/IC50) [nM]
C[C@@H](O)[C@@H]1NC(=O)[C@H](CCCCN)NC(=O)[C@@H](Cc2c[nH]c3ccccc23)NC(=O)[C@H](Cc2ccc(O)cc2)NC(=O)[C@@H](NC(=O)[C@@H](Cc2ccccc2)NC(=O)COCCOCCNC(=O)[C@H](CCCCNC(=O)[C@H](CCC(=O)O)NC(=O)c2cccc(NC(=O)N[C@@H]3CN(C4CCCCC4)c4ccccc4N(CC(=O)C(C)(C)C)C3=O)c2)NC(=O)CN2CCN(CC(=O)O)CCN(CC(=O)O)CCN(CC(=O)O)CC2)CSSC[C@@H](C(=O)N[C@H](CO)[C@@H](C)O)NC1=O [Compound I-5, DOTA-K(-E-Z360)-OEG-f[CYwKTC]-Thr(ol)] | 0.10 | 216 |  |  |  | 
C[C@@H](O)[C@@H]1NC(=O)[C@H](CCCCN)NC(=O)[C@@H](Cc2c[nH]c3ccccc23)NC(=O)[C@H](Cc2ccc(O)cc2)NC(=O)[C@@H](NC(=O)[C@@H](Cc2ccccc2)NC(=O)[C@H](CCCCNC(=O)[C@H](CCC(=O)O)NC(=O)c2cccc(NC(=O)N[C@@H]3CN(C4CCCCC4)c4ccccc4N(CC(=O)C(C)(C)C)C3=O)c2)NC(=O)CN2CCN(CC(=O)O)CCN(CC(=O)O)CCN(CC(=O)O)CC2)CSSC[C@@H](C(=O)N[C@H](CO)[C@@H](C)O)NC1=O [Compound I-6, DOTA-K(-E-Z360)-f[CYwKTC]-Thr(ol)] | 0.20 | 19.7 |  |  |  | 
C[C@@H](O)[C@H](NC(=O)[C@@H]1CSSC[C@H](NC(=O)[C@@H](Cc2ccccc2)NC(=O)COCCOCCNC(=O)[C@H](CCCCNC(=O)CC[C@H](NC(=O)CNC(=O)c2cccc(NC(=O)N[C@@H]3CN(C4CCCCC4)c4ccccc4N(CC(=O)C(C)(C)C)C3=O)c2)C(=O)O)NC(=O)CC[C@H](NC(=O)CC[C@H](NC(=O)CN2CCN(CC(=O)O)CCN(CC(=O)O)CCN(CC(=O)O)CC2)C(=O)O)C(=O)O)C(=O)N[C@@H](Cc2ccc(O)cc2)C(=O)N[C@H](Cc2c[nH]c3ccccc23)C(=O)N[C@@H](CCCCN)C(=O)N[C@@H]([C@@H](C)O)C(=O)N1)C(=O)O [Compound I-10, DOTA-gE-gE-K(-gE-G-Z360)-OEG-f[CYwKTC]T-OH] | 0.78 | 275 |  |  |  | 
C[C@@H](O)[C@H](NC(=O)[C@@H]1CSSC[C@H](NC(=O)[C@@H](Cc2ccccc2)NC(=O)COCCOCCNC(=O)[C@H](CCCCNC(=O)CN2CCN(CC(=O)O)CCN(CC(=O)O)CCN(CC(=O)O)CC2)NC(=O)CC[C@H](NC(=O)COCCOCCNC(=O)CC[C@H](NC(=O)[C@H](CCC(=O)O)NC(=O)c2cccc(NC(=O)N[C@@H]3CN(C4CCCCC4)c4ccccc4N(CC(=O)C(C)(C)C)C3=O)c2)C(=O)O)C(=O)O)C(=O)N[C@@H](Cc2ccc(O)cc2)C(=O)N[C@H](Cc2c[nH]c3ccccc23)C(=O)N[C@@H](CCCCN)C(=O)N[C@@H]([C@@H](C)O)C(=O)N1)C(=O)O [Compound I-12, (Z360)-E-gE-OEG-gE-K(DOTA)-OEG-f[CYwKTC]T-OH] | 0.61 | 255 |  |  |  | 
C[C@@H](O)[C@H](NC(=O)[C@@H]1CSSC[C@H](NC(=O)[C@@H](Cc2ccccc2)NC(=O)COCCOCCNC(=O)[C@H](CCCCNC(=O)CC[C@H](NC(=O)CNC(=O)c2cccc(NC(=O)N[C@@H]3CN(C4CCCCC4)c4ccccc4N(CC(=O)C(C)(C)C)C3=O)c2)C(=O)O)NC(=O)COCCOCCNC(=O)COCCOCCNC(=O)CC[C@H](NC(=O)CC[C@H](NC(=O)CN2CCN(CC(=O)O)CCN(CC(=O)O)CCN(CC(=O)O)CC2)C(=O)O)C(=O)O)C(=O)N[C@@H](Cc2ccc(O)cc2)C(=O)N[C@H](Cc2c[nH]c3ccccc23)C(=O)N[C@@H](CCCCN)C(=O)N[C@@H]([C@@H](C)O)C(=O)N1)C(=O)O [Compound I-15, DOTA-gE-gE-OEG-OEG-K(-gE-G-Z360)-OEG-f[CYwKTC]T-OH] | 0.29 | 71.1 |  |  |  | 
C[C@@H](O)[C@H](NC(=O)[C@@H]1CSSC[C@H](NC(=O)[C@@H](Cc2ccccc2)NC(=O)COCCOCCNC(=O)COCCOCCNC(=O)[C@H](CCCCNC(=O)CCC(C(=O)O)N2CCN(CC(=O)O)CCN(CC(=O)O)CCN(CC(=O)O)CC2)NC(=O)COCCOCCNC(=O)COCCOCCNC(=O)CC[C@H](NC(=O)CC[C@H](NC(=O)c2cccc(NC(=O)N[C@@H]3CN(C4CCCCC4)c4ccccc4N(CC(=O)C(C)(C)C)C3=O)c2)C(=O)O)C(=O)O)C(=O)N[C@@H](Cc2ccc(O)cc2)C(=O)N[C@H](Cc2c[nH]c3ccccc23)C(=O)N[C@@H](CCCCN)C(=O)N[C@@H]([C@@H](C)O)C(=O)N1)C(=O)O (stereo partly shown) [Compound I-17, (Z360)- gE- gE- OEG- OEG- K(DOTAGA)- OEG- OEG- f[CYwKTC]T- OH (] | 0.16 | 17.3 |  |  |  | 
C[C@@H](O)[C@H](NC(=O)[C@@H]1CSSC[C@H](NC(=O)[C@@H](Cc2ccccc2)NC(=O)COCCOCCNC(=O)[C@H](CCCCNC(=O)CCC(C(=O)O)N2CCN(CC(=O)O)CCN(CC(=O)O)CCN(CC(=O)O)CC2)NC(=O)COCCOCCNC(=O)c2cccc(NC(=O)N[C@@H]3CN(C4CCCCC4)c4ccccc4N(CC(=O)C(C)(C)C)C3=O)c2)C(=O)N[C@@H](Cc2ccc(O)cc2)C(=O)N[C@H](Cc2c[nH]c3ccccc23)C(=O)N[C@@H](CCCCN)C(=O)N[C@@H]([C@@H](C)O)C(=O)N1)C(=O)O (stereo partly shown) [Compound I-31, Z360- OEG- K(DOTAGA)- OEG- f[CYwKTC]T- OH] |  |  | 4.75 | 8.8 |  | 
C[C@@H](O)[C@H](NC(=O)[C@@H]1CSSC[C@H](NC(=O)[C@@H](Cc2ccccc2)NC(=O)COCCOCCNC(=O)[C@H](CCCCNC(=O)COCCOCCNC(=O)c2cccc(NC(=O)N[C@@H]3CN(C4CCCCC4)c4ccccc4N(CC(=O)C(C)(C)C)C3=O)c2)NC(=O)CN2CCN(CC(=O)O)CCN(CC(=O)O)CCN(CC(=O)O)CC2)C(=O)N[C@@H](Cc2ccc(O)cc2)C(=O)N[C@H](Cc2c[nH]c3ccccc23)C(=O)N[C@@H](CCCCN)C(=O)N[C@@H]([C@@H](C)O)C(=O)N1)C(=O)O [Compound I-43, DOTA-K(-OEG-Z360)-OEG-f[CYwKTC]T-OH] |  |  | 0.61 | 4.0 |  | 
C[C@@H](O)[C@H](NC(=O)[C@@H]1CSSC[C@H](NC(=O)[C@@H](Cc2ccccc2)NC(=O)COCCOCCNC(=O)COCCOCCNC(=O)COCCOCCNC(=O)[C@H](CCCCNC(=O)c2cccc(NC(=O)N[C@@H]3CN(C4CCCCC4)c4ccccc4N(CC(=O)C(C)(C)C)C3=O)c2)NC(=O)CN2CCN(CC(=O)O)CCN(CC(=O)O)CCN(CC(=O)O)CC2)C(=O)N[C@@H](Cc2ccc(O)cc2)C(=O)N[C@H](Cc2c[nH]c3ccccc23)C(=O)N[C@@H](CCCCN)C(=O)N[C@@H]([C@@H](C)O)C(=O)N1)C(=O)O [Compound I-45, DOTA-K(Z360)-OEG-OEG-OEG-f[CYwKTC]T-OH] | 1.36 | 1.7 |  |  | 2.07 | 9.9
C[C@@H](O)[C@H](NC(=O)[C@@H]1CSSC[C@H](NC(=O)[C@@H](Cc2ccccc2)NC(=O)[C@H](CCCCNC(=O)COCCOCCNC(=O)COCCOCCNC(=O)COCCOCCNC(=O)c2cccc(NC(=O)N[C@@H]3CN(C4CCCCC4)c4ccccc4N(CC(=O)C(C)(C)C)C3=O)c2)NC(=O)CN2CCN(CC(=O)O)CCN(CC(=O)O)CCN(CC(=O)O)CC2)C(=O)N[C@@H](Cc2ccc(O)cc2)C(=O)N[C@H](Cc2c[nH]c3ccccc23)C(=O)N[C@@H](CCCCN)C(=O)N[C@@H]([C@@H](C)O)C(=O)N1)C(=O)O [Compound I-46, DOTA-K(-OEG-OEG-OEG-Z360)-f[CYwKTC]T-OH] |  |  | 0.43 | 50.2 |  | 
